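96-well plates; 48 h exposure; 5 concentrations. Endpoints by linear interpolation between flanking doses. Not reached: highest tested concentration assigned. GI50 = concentration required for 50% inhibition of growth. The concentration for full growth arrest is given as TGI.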
Experiments:
Assay in all cases: DTP human tumour cell line panel, 48 h
A498 renal = test system: A498 renal
SK-MEL-28 melanoma = test system: SK-MEL-28 melanoma
HT29 colon = test system: HT29 colon
NCI-H23 lung = test system: NCI-H23 lung
UACC-257 melanoma = test system: UACC-257 melanoma
HOP-92 NSCLC = test system: HOP-92 NSCLC
SF-539 CNS = test system: SF-539 CNS
MALME-3M melanoma = test system: MALME-3M melanoma
UACC-62 melanoma = test system: UACC-62 melanoma
MCF7 breast = test system: MCF7 breast
NCI-H460 lung = test system: NCI-H460 lung
CAKI-1 renal = test system: CAKI-1 renal
786-0 renal = test system: 786-0 renal
SNB-19 CNS = test system: SNB-19 CNS
RXF 393 renal = test system: RXF 393 renal
EKVX NSCLC = test system: EKVX NSCLC
HS 578T breast = test system: HS 578T breast
MOLT-4 leukemia = test system: MOLT-4 leukemia
MDA-MB-435 = test system: MDA-MB-435
LOX IMVI melanoma = test system: LOX IMVI melanoma
SK-MEL-5 melanoma = test system: SK-MEL-5 melanoma
OVCAR-5 ovarian = test system: OVCAR-5 ovarian
DU-145 prostate = test system: DU-145 prostate
SF-295 CNS = test system: SF-295 CNS
HL-60(TB) leukemia = test system: HL-60(TB) leukemia
IGROV1 ovarian = test system: IGROV1 ovarian
K-562 leukemia = test system: K-562 leukemia
HOP-62 NSCLC = test system: HOP-62 NSCLC
RPMI-8226 leukemia = test system: RPMI-8226 leukemia
SK-OV-3 ovarian = test system: SK-OV-3 ovarian
OVCAR-8 ovarian = test system: OVCAR-8 ovarian
KM12 colon = test system: KM12 colon
SR leukemia = test system: SR leukemia
SW-620 colon = test system: SW-620 colon
M14 melanoma = test system: M14 melanoma
CCRF-CEM leukemia = test system: CCRF-CEM leukemia
ACHN renal = test system: ACHN renal
MDA-MB-231 breast = test system: MDA-MB-231 breast
SN12C renal = test system: SN12C renal
NCI/ADR-RES ovarian = test system: NCI/ADR-RES ovarian
SNB-75 CNS = test system: SNB-75 CNS
SK-MEL-2 melanoma = test system: SK-MEL-2 melanoma
OVCAR-3 ovarian = test system: OVCAR-3 ovarian
HCT-116 colon = test system: HCT-116 colon
OVCAR-4 ovarian = test system: OVCAR-4 ovarian
A549 NSCLC = test system: A549 NSCLC
T-47D breast = test system: T-47D breast
HCT-15 colon = test system: HCT-15 colon
U251 CNS = test system: U251 CNS
SF-268 CNS = test system: SF-268 CNS
NCI-H522 lung = test system: NCI-H522 lung
NCI-H226 lung = test system: NCI-H226 lung
HCC-2998 colon = test system: HCC-2998 colon
TK-10 renal = test system: TK-10 renal
COLO 205 colon = test system: COLO 205 colon
BT-549 breast = test system: BT-549 breast
PC-3 prostate = test system: PC-3 prostate

For `CC1=C(CN(O)C(N)=O)C2=C(C)C3(CC3)[C@@](C)(O)C(=O)C2=C1`, the GI50 (A498 renal) was 175 nM, the TGI (A498 renal) was 359 nM and the GI50 (SK-MEL-28 melanoma) was 229 nM. For the same molecule, the TGI (SK-MEL-28 melanoma) was 505 nM, the GI50 (HT29 colon) was 316 nM and the TGI (HT29 colon) was greater than 34.5 µM. For the same molecule, the GI50 (NCI-H23 lung) was 109 nM, the TGI (NCI-H23 lung) was 544 nM and the GI50 (UACC-257 melanoma) was 280 nM. For the same molecule, the TGI (UACC-257 melanoma) was 765 nM, the GI50 (HOP-92 NSCLC) was 208 nM and the TGI (HOP-92 NSCLC) was 618 nM. For the same molecule, the GI50 (SF-539 CNS) was 216 nM, the TGI (SF-539 CNS) was 556 nM and the GI50 (MALME-3M melanoma) was 205 nM. The TGI (MALME-3M melanoma) was 424 nM, the GI50 (UACC-62 melanoma) was 224 nM and the TGI (UACC-62 melanoma) was 562 nM. For the same molecule, the GI50 (MCF7 breast) was 921 nM, the TGI (MCF7 breast) was 10.1 µM and the GI50 (NCI-H460 lung) was 45.2 nM. For the same molecule, the TGI (NCI-H460 lung) was 909 nM, the GI50 (CAKI-1 renal) was 253 nM and the TGI (CAKI-1 renal) was 1350 nM. It also gave a GI50 (786-0 renal) of 343 nM, a GI50 (SNB-19 CNS) of 469 nM and a TGI (SNB-19 CNS) of 6.18 µM. The GI50 (RXF 393 renal) was 141 nM, the TGI (RXF 393 renal) was 290 nM and the GI50 (EKVX NSCLC) was 346 nM. It also gave a TGI (EKVX NSCLC) of 1530 nM, a GI50 (HS 578T breast) of 503 nM and a TGI (HS 578T breast) of 3 µM. The GI50 (MOLT-4 leukemia) was 21.3 µM, the TGI (MOLT-4 leukemia) was greater than 100 µM and the GI50 (MDA-MB-435) was 662 nM. The TGI (MDA-MB-435) was 2370 nM, the GI50 (LOX IMVI melanoma) was 402 nM and the TGI (LOX IMVI melanoma) was 2040 nM. The GI50 (SK-MEL-5 melanoma) was 195 nM, the TGI (SK-MEL-5 melanoma) was 409 nM and the GI50 (OVCAR-5 ovarian) was 367 nM. For the same molecule, the TGI (OVCAR-5 ovarian) was 2270 nM, the GI50 (DU-145 prostate) was 43.9 nM and the TGI (DU-145 prostate) was 1110 nM. For the same molecule, the GI50 (SF-295 CNS) was 252 nM, the TGI (SF-295 CNS) was 1160 nM and the GI50 (HL-60(TB) leukemia) was 279 nM. For the same molecule, the TGI (HL-60(TB) leukemia) was 3.55 µM, the GI50 (IGROV1 ovarian) was 208 nM and the TGI (IGROV1 ovarian) was 940 nM. It also gave a GI50 (K-562 leukemia) of 16.3 µM, a TGI (K-562 leukemia) greater than 100 µM and a GI50 (HOP-62 NSCLC) of 178 nM. The TGI (HOP-62 NSCLC) was 996 nM, the GI50 (RPMI-8226 leukemia) was 7.19 µM and the TGI (RPMI-8226 leukemia) was greater than 100 µM. It also gave a GI50 (SK-OV-3 ovarian) of 305 nM, a TGI (SK-OV-3 ovarian) of 1090 nM and a GI50 (OVCAR-8 ovarian) of 337 nM. For the same molecule, the TGI (OVCAR-8 ovarian) was 6.68 µM, the GI50 (KM12 colon) was 530 nM and the TGI (KM12 colon) was 5.41 µM. For the same molecule, the GI50 (SR leukemia) was 7.6 µM, the TGI (SR leukemia) was greater than 80.9 µM and the GI50 (SW-620 colon) was 10.8 µM. For the same molecule, the TGI (SW-620 colon) was greater than 100 µM, the GI50 (M14 melanoma) was 269 nM and the TGI (M14 melanoma) was 699 nM. For the same molecule, the GI50 (CCRF-CEM leukemia) was 29.6 µM, the TGI (CCRF-CEM leukemia) was greater than 100 µM and the GI50 (ACHN renal) was 236 nM. It also gave a TGI (ACHN renal) of 572 nM, a GI50 (MDA-MB-231 breast) of 324 nM and a TGI (MDA-MB-231 breast) of 1780 nM. For the same molecule, the GI50 (SN12C renal) was 373 nM, the TGI (SN12C renal) was 2670 nM and the GI50 (NCI/ADR-RES ovarian) was 381 nM. For the same molecule, the TGI (NCI/ADR-RES ovarian) was 3.11 µM, the GI50 (SNB-75 CNS) was 215 nM and the TGI (SNB-75 CNS) was 464 nM. The GI50 (SK-MEL-2 melanoma) was 356 nM, the TGI (SK-MEL-2 melanoma) was 1210 nM and the GI50 (OVCAR-3 ovarian) was 260 nM. For the same molecule, the TGI (OVCAR-3 ovarian) was 769 nM, the GI50 (HCT-116 colon) was 267 nM and the GI50 (OVCAR-4 ovarian) was 285 nM. For the same molecule, the TGI (OVCAR-4 ovarian) was 1550 nM, the GI50 (A549 NSCLC) was 118 nM and the TGI (A549 NSCLC) was 1220 nM. The GI50 (T-47D breast) was 214 nM, the TGI (T-47D breast) was 1720 nM and the GI50 (HCT-15 colon) was 267 nM. For the same molecule, the TGI (HCT-15 colon) was 883 nM, the GI50 (U251 CNS) was 337 nM and the GI50 (SF-268 CNS) was 236 nM. For the same molecule, the TGI (SF-268 CNS) was 1560 nM, the GI50 (NCI-H522 lung) was 1230 nM and the TGI (NCI-H522 lung) was 4.65 µM. It also gave a GI50 (NCI-H226 lung) of 235 nM, a TGI (NCI-H226 lung) of 644 nM and a GI50 (HCC-2998 colon) of 174 nM. For the same molecule, the TGI (HCC-2998 colon) was 414 nM, the GI50 (TK-10 renal) was 308 nM and the TGI (TK-10 renal) was 909 nM. It also gave a GI50 (COLO 205 colon) of 185 nM, a TGI (COLO 205 colon) of 517 nM and a GI50 (BT-549 breast) of 367 nM. The TGI (BT-549 breast) was 1590 nM, the GI50 (PC-3 prostate) was 398 nM and the TGI (PC-3 prostate) was 5.24 µM.

Reference: PubChem BioAssay (NCI)
